Laboratory results reported in patent US6156758A, “Antibacterial quinazoline compounds” (Isis Pharmaceuticals, Inc., priority 1999, dated 2000).
In brackets after ≈: the same amount, converted by molar mass.

Experiments:
Format in all cases: cell-based
S. pyogenes [1] = assay: MIC determination, initial screen, S. pyogenes; conditions: Streptococcus pyogenes, ATCC14289; Table 1; ATCC 14289 (initial screen); 24 h, A595
Excerpt: (§1) The Streptococcus pyogenes strains, Klebsiella pneumoniae, Escherichia coli, Staphylococcus aureus, Enterococcus faecalis used in the antibacterial activity studies ATCC 14289, 49399, 13883, 25922, 13709, 29212, respectively, were obtained from the American Type Culture Collection, Rockville, Md. The strain E. coli imp- is a mutant strain of wild type E. coli with increased outer membrane permeability. In initial screens, E. coli imp- and S. pyrogenes (ATCC 14289) were used. The E. coli imp-strain was grown in LB broth, and the S. pyogenes strain was grown in Todd-Hewitt broth. Interesting compounds were further evaluated in the tier II screens against other bacterial screens. S. aureus was grown in trypticase soy broth, E. faecalis in Todd-Hewitt broth, wild type E. coli and K. pneumoniae, in nutrient broth. All bacterial were grown at 37° C.
(§2) The assays were carried out in 150 μL volume in duplicate in 96-well clear flat-bottom plates. The bacterial suspension from an overnight culture growth in appropriate medium was added to a solution of test compound in 4% DMSO in water. Final bacterial inoculum was approximately 10^5 -10^6 CFU/well. The percent growth of the bacteria in test wells relative to that observed for a well containing no compound was determined by measuring absorbance at 595 nm (A595) after 24 h. […] Both ampicillin and tetracycline were used as antibiotic-positive controls in each screening assay for S. pyogenes, E. coli imp-, E. coli, S. aureus, E. faecalis, K. pneumoniae and P. vulgaris. Ciprofloxacin was used as an antibiotic positive control in each screening assay for P. aeruginosa.

E. coli imp- = assay: MIC determination, initial screen, E. coli imp-; conditions: Escherichia coli, 24 h, read-out: MIC E. coli imp
Excerpt: as §1, §2

K. pneumoniae = assay: MIC determination, tier II screen, K. pneumoniae (#13883); conditions: Klebsiella pneumoniae; Table 2; 24 h, A595
Excerpt: as §1, §2

E. coli = assay: MIC determination, tier II screen, wild type E. coli (#25922); conditions: Escherichia coli, Table 2, 24 h, A595
Excerpt: as §1, §2

S. aureus = assay: MIC determination, tier II screen, S. aureus (#13709); conditions: Staphylococcus aureus; Table 2; 24 h, A595
Excerpt: as §1, §2

E. faecalis = assay: MIC determination, tier II screen, E. faecalis (#29212); conditions: Enterococcus faecalis; Table 2; 24 h, A595
Excerpt: as §1, §2

S. pyogenes [2] = assay: MIC determination, tier II screen, S. pyogenes (#49399); conditions: Streptococcus pyogenes; Table 2; 24 h, A595
Excerpt: as §1, §2

SMILES	MIC (S. pyogenes [1])	MIC (E. coli imp-)	MIC (K. pneumoniae)	MIC (E. coli)	MIC (S. aureus)	MIC (E. faecalis)	MIC (S. pyogenes [2])
CC(C)(C)OC(=O)c1ccc(NC2CCN(c3nc(N)c4ccccc4n3)CC2)cc1 [Compound 17, 4-[1-(4-Aminoquinazolin-2-yl)piperidin-4-ylamino]benzoic acid tert-butyl ester]	< 100 µM	< 100 µM	–	–	–	–	–
COc1cc2cnc(N3CCC(Nc4ccc(C(=O)O)cc4)CC3)nc2cc1OC [Compound 28, 4-[1-(6,7-Dimethoxyquinazolin-2-yl)piperidin-4-ylamino]benzoic acid]	> 20 µM	> 20 µM	–	–	–	–	–
COc1cc2nc(N3CCC(Nc4nc(N)c(C(=O)O)nc4Cl)CC3)nc(N)c2cc1OC [Compound 18, 3-Amino-5-[1-(4-amino-6,7-dimethoxyquinazolin-2-yl)piperidin-4-ylamino]-6-chloropyrazine-2-carboxylic acid]	> 100 µM	> 100 µM	–	–	–	–	–
Nc1nc(N2CCC(Nc3ccc(C(=O)O)cc3)CC2)nc2ccccc12 [Compound 32, 4-[1-(4-Aminoquinazolin-2-yl)piperidin-4-ylamino]benzoic acid]	> 100 µM	> 100 µM	–	–	–	–	–
COc1cc2nc(N3CCC(Nc4ccc(C(=O)OC(C)(C)C)cc4)CC3)[nH]c(=O)c2cc1OC [Compound 15, 4-[1-(6,7-Dimethoxy-4-oxo-3,4-dihydroquinazolin-2-yl)piperidin-4-ylamino]benzoic acid tert-butyl ester]	> 100 µM	> 100 µM	–	–	–	–	–
COc1cc2nc(N3CCC(Nc4ccc(C(=O)O)cn4)CC3)nc(N)c2cc1OC [Compound 20, 6-[1-(4-Amino-6,7-dimethoxyquinazolin-2-yl)piperidin-4-ylamino]nicotinic acid]	> 20 µM	> 50 µM	–	–	–	–	–
COC(=O)c1ccc(NC2CCN(c3nc(N)c4cc(OC)c(OC)cc4n3)CC2)cc1 [Compound 4, 4-[1-(4-Amino-6,7-dimethoxy-quinazolin-2-yl)-piperidin-4-ylamino]-benzoic acid methyl ester]	5 to 25 µM (≈ 2.19 to 10.9 µg/mL)	5 to 25 µM (≈ 2.19 to 10.9 µg/mL)	> 100 µM	> 100 µM	> 100 µM	20 to 40 µM (≈ 8.75 to 17.5 µg/mL)	5 to 25 µM (≈ 2.19 to 10.9 µg/mL)
COc1cc2nc(N3CCC(Nc4ccc(C(=O)O)cc4)CC3)nc(OC)c2cc1OC [Compound 29, 4-[1-(4,6,7-Trimethoxyquinazolin-2-yl)piperidin-4-ylamino]benzoic acid]	> 20 µM	> 20 µM	–	–	–	–	–
COC(=O)c1ccc(NC2CCN(c3nc(N)c4cc(OC)c(OC)cc4n3)CC2)nc1 [Compound 3, 6-[1-(4-Amino-6,7-dimethoxy-quinazolin-2-yl)-piperidin-4-ylamino]-nicotinicacid methyl ester]	25 to 50 µM (≈ 11 to 21.9 µg/mL)	> 50 µM	–	–	–	–	–
COc1cc2nc(N3CCC(Nc4ccc(C(=O)O)cc4)CC3)[nH]c(=O)c2cc1OC [Compound 30, 4-[1-(6,7-Dimethoxy-4-oxo-3,4-dihydroquinazolin-2-yl)piperidin-4-ylamino]benzoic acid]	> 20 µM	> 20 µM	–	–	–	–	–
COc1cc2nc(N3CCC(Nc4ccc(C(=O)OC(C)(C)C)cc4)CC3)nc(OC)c2cc1OC [Compound 14, 4-[1-(4,6,7-Trimethoxyquinazolin-2-yl)piperidin-4-ylamino]benzoic acid tert-butyl ester]	< 100 µM	< 100 µM	–	–	–	–	–
COc1cc2nc(N3CCC(Nc4ccc(C(=O)OC(C)(C)C)cc4)CC3)nc(N)c2cc1OC [Compound 5, 4-[1-(4-Amino-6,7-dimethoxy-quinazolin-2-yl)-piperidin-4-ylamino]-benzoic acid tert-butyl ester]	3 to 6 µM (≈ 1.44 to 2.88 µg/mL)	6 to 12 µM (≈ 2.88 to 5.75 µg/mL)	> 100 µM	> 100 µM	> 100 µM	6 to 12 µM (≈ 2.88 to 5.75 µg/mL)	6 to 12 µM (≈ 2.88 to 5.75 µg/mL)
COc1cc2nc(N3CCC(Nc4cnc(C(=O)O)c(N)n4)CC3)nc(N)c2cc1OC [Compound 19, 3-Amino-5-[1-(4-amino-6,7-dimethoxyquinazolin-2-yl)piperidin-4-ylamino]pyrazine-2-carboxylic acid]	> 25 µM	> 25 µM	–	–	–	–	–
COC(=O)c1nc(Cl)c(NC2CCN(c3nc(N)c4cc(OC)c(OC)cc4n3)CC2)nc1N [Compound 1, 3-Amino-5-[1-(4-amino-6,7-dimethoxy-quinazolin-2-yl)-piperidin-4-ylamino]-6-chloro-pyrazine-2-carboxylic acid methyl ester]	12 to 25 µM (≈ 5.87 to 12.2 µg/mL)	> 25 µM	–	–	–	–	–
COc1cc2cnc(N3CCC(Nc4ccc(C(=O)OC(C)(C)C)cc4)CC3)nc2cc1OC [Compound 13, 4-[1-(6,7-Dimethoxyquinazolin-2-yl)piperidin-4-ylamino]benzoic acid tert-butyl ester]	> 20 µM	> 20 µM	–	–	–	–	–
COC(=O)c1ncc(NC2CCN(c3nc(N)c4cc(OC)c(OC)cc4n3)CC2)nc1N [Compound 2, 3-Amino-5-[1-(4-amino-6,7-dimethoxy-quinazolin-2-yl)-piperidin-4-ylamino]-pyrazine-2-carboxylic acid methyl ester]	> 50 µM	> 50 µM	–	–	–	–	–
COc1cc2nc(N3CCC(Nc4ccc(C(=O)OC(C)(C)C)cc4)CC3)nc(Nc3ccc(C)cc3)c2cc1OC [Compound 16, 4-[1-(6,7-Dimethoxy-4-p-tolylaminoquinazolin-2-yl)piperidin-4-ylamino]benzoic acid tert-butyl ester]	2.5 to 5 µM (≈ 1.42 to 2.85 µg/mL)	10 to 20 µM (≈ 5.7 to 11.4 µg/mL)	–	–	–	–	–
COc1cc2nc(N3CCC(Nc4ccc(C(=O)O)cc4)CC3)nc(N)c2cc1OC [Compound 22, 4-[1-(4-Amino-6,7-dimethoxyquinazolin-2-yl)piperidin-4-ylamino]benzoic acid]	> 25 µM	0.4 to 2 µM (≈ 0.169 to 0.847 µg/mL)	6 to 12 µM (≈ 2.54 to 5.08 µg/mL)	60 to 80 µM (≈ 25.4 to 33.9 µg/mL)	6 to 12 µM (≈ 2.54 to 5.08 µg/mL)	> 100 µM	> 25 µM
COc1cc2nc(N3CCC(Nc4ccc(C(=O)O)cc4)CC3)nc(Nc3ccc(C)cc3)c2cc1OC [Compound 31, 4-[1-(6,7-Dimethoxy-4-p-tolylaminoquinazolin-2-yl)piperidin-4-ylamino]benzoic acid]	> 20 µM	> 20 µM	–	–	–	–	–
COc1cc2nc(N3CCC(Nc4ccc(C(=O)O)cc4[N+](=O)[O-])CC3)nc(N)c2cc1OC [Compound 21, 4-[1-(4-Amino-6,7-dimethoxyquinazolin-2-yl)piperidin-4-ylamino]-3-nitrobenzoic acid]	> 20 µM	> 20 µM	–	–	–	–	–
COc1cc2nc(N3CCC(Nc4ccc(C(=O)OC(C)(C)C)cc4[N+](=O)[O-])CC3)nc(N)c2cc1OC [Compound 6, 4-[1-(4-Amino-6,7-dimethoxyquinazolin-2-yl)piperidin-4-ylamino]-3-nitrobenzoic acid tert-butyl ester]	50 to 100 µM (≈ 26.2 to 52.5 µg/mL)	25 to 50 µM (≈ 13.1 to 26.2 µg/mL)	–	–	–	–	–
